Laboratory results as given in patent publication EP1306084A1, “Compositions for the control of parasitic infestations in fish” (Alpharma AS, priority 1998, dated 1999).

Experiments:
[1] = Specific growth rate after sea transfer (Example 5); type: in vivo, sea trout (Salmo trutta); details: treated groups (oral, bath), after about 13 weeks; control group 0.37%
Description: About 300 sea trout (Salmo trutta) of an average weight of 160 grams were divided into three groups of 100 fish each. One group was given oral treatment for one week before they were transferred to sea at a daily dosage of 4 mg hexaflumuron per kg fish for 5 days. The second group was treated with a bath treatment using a dosage of 5 ppm hexaflumuron for 30 minutes with a formulation containing 10% hexaflumuron, while the last group remained untreated. The treatments were carried out in fresh water during the last week before the fish were transferred to sea water. In the sea water, the fish were distributed into 3 mini-cages with 100 fish in each. The fish were then exposed to natural sea lice infection. Lice from 6-10 fish from each cage were counted every third week to assess whether there was any difference in the number of lice between the cages. At the end of the trial, i.e. about 13 weeks after the fish had been transferred to sea, the fish in each cage were weighed to check possible differences in SGR. The water temperature varied within the range of 12 - 22°C during the trial.
After 11 weeks there was no difference between the groups, but the number of lice was very low in all groups, which makes it difficult to determine the length of the protection period. […] The SGR was determined after about 13 weeks. […]

sea lice [2] = assay: Oral or bath treatment in freshwater before sea transfer, sea lice counts after natural infestation (Example 6); type: in vivo, Atlantic salmon (Salmo salar)
Description: (§1) The treatment dosage was 9 mg hexaflumuron per kg fish per day for 10 days. This is indicated by "Groups/Timepoints" in the figure; • Figure 2 relates to the trial in Example 2 that was carried out on Atlantic salmon (Salmo salar). […] The treatment dosage varied between 3 - 9 mg hexaflumuron and 9- 12 mg fluazuron per kg fish per day for 7 days. This is indicated by "Groups/Timepoints" in the diagram. […] The treated groups are compared to an untreated control group. The treatment dosage was 4 mg hexaflumuron per kg fish per day for 5 days. This is indicated by "Groups/Timepoints" in the figure. Cage 2 = controls, Cage 4-6 = treated groups, 16.6.97 = time point for sea transfer and 5.8.97= controls treated by bathing with deltamethrin; • Figure 4 relates to the trial described in Example 5, which was carried out on sea trout (Salmo trutta). […] The treated groups are compared with an untreated control group. The dosage for oral treatment was 4 mg hexaflumuron per kilo fish per day for 5 days, and 5 ppm hexaflumuron as a 30 minute bath treatment. This is indicated by "Groups/Timepoints" in the figure. Cage 1.4 = Controls, cage 1.3 = Oral treatment, cage 1.2 = Bath treatment. […] The treated groups are compared with an untreated control group, and one group that has been treated orally with teflubenzuron (10 mg/kg of teflubenzuron per kg fish per day for 7 days). The dosage for oral treatment was 5.6 mg hexaflumuron per kg fish per day for 7 days, and 5 ppm hexaflumuron as a 30 minute bath treatment. […] End of treatment: 22.10.97, Sea transfer: 23.10.97. T1 = 3 weeks post end of treatment, T2 = 5 weeks post end of treatment, T3 = 9 weeks post end of treatment, T4 = 12 weeks post end of treatment; • Figure 6 relates to the trial in Example 6 at time points 4-6, with the same trial parameters as for Figure 5. T5 = 15 weeks post end of treatment, T6 = 17 weeks post end of treatment. Cage 3 and 4 were treated by bath with deltamethrin after sea lice counting at T4 (12.01.98); • Figure 7 relates to the trial described in Example 7 where salmon were injected on 17.12.97 with two formulations (groups L and R, respectively) of hexaflumuron and a vaccine formulation without hexaflumuron (control). […] The vaccinated fish was transferred to sea water on 09.01.98; • Figure 8 summarises the trial of Example 8 where salmon smolts were injected with 9 different active substances on 08.07.98. Only results for Moxidectin (Mox.), Lufenuron (Luf.) and hexaflumuron in Apoject 1-Fural (Hex.Apo) and in animal oil (Hex.oil) are shown, and • Figure 9 summarises the trial described in Example 10 where salmon were injected on 03.12.97 with 3 different formulations of hexaflumuron (Hexa 1, Hexa 2 and Hexa 3). The fish were transferred to sea water at T0.
About 400 Atlantic salmon (Salmo salar) of an average weight of 80 grams were divided into four groups of 100 fish in each. One group was given an oral treatment of 5.6 mg hexaflumuron per kg fish each day for 7 days before sea transfer. Group two was given a bath treatment with a dosage of 5 ppm (mg/l) hexaflumuron for 30 minutes with a formulation containing 10% hexaflumuron. Group three was given oral treatment with a daily dosage of 10 mg teflubenzuron per kg fish for 7 days, while the last group remained untreated. […] Every third week, lice from 10 fish in each cage were counted to assess if there was a difference in the number of lice between the cages. […]

sea lice [3] = assay: Injection of 9 active substances, protective effect against sea lice (Example 8); type: in vivo, salmon smolt; details: for lice on average: T3, 70 days after injection, about 50 mg/kg, control group 5.6
Description: as §1
In this trial 9 different active substances were tested for protective effect against sea lice. 1,200 salmon smolt were, prior the start of the trial, vaccinated with a commercial vaccine, ALPHA JECT 5100.
One week after sea water transfer the salmon was divided into 12 groups and injected with different formulations of the 9 different active substances. In parallel with the 12 groups, a 13th group comprising 50 fish of the same origin and size was injected with a saline (PBS) solution without active substance. This group served as negative control/reference group in respect of sea lice infestations. The groups were marked by fin cutting and distributed randomly into 3 cages.
The active substances that were used as injection were hexaflumuron, buprofezin, diflubenzuron, fluazuron, lufenuron, ivermectin, doramectin, moxidectin and milbemycin oxime, respectively. All the fish were injected with 0.2 ml of the various injection formulations. Hexaflumuron, buprofezin, fluazuron, lufenuron and diflubenzuron were administered at a dosage of about 50 mg/kg whereas ivermectin, doramectin and moxidectin were administered at a dosage of 0.2 mg/kg (recommended dosage for mammals). […]

## O=C(NC(=O)c1c(F)cccc1F)Nc1cc(Cl)c(OC(F)(F)C(F)F)c(Cl)c1 [hexaflumuron]
[1]
  SGR: 0.84 - 0.98%
Sea lice [2]; hexaflumuron oral or bath before sea transfer
  protection period: at least 11 weeks
Sea lice [2]; oral 5.6 mg per kg each day for 7 days or bath 5 ppm for 30 minutes, 5, 8 and 11 weeks (time points 2, 3 and 4)
  number of lice larger than Chalimus II versus control: significantly lower
Sea lice [3]; T2, 40 days after injection, hexaflumuron, lufenuron about 50 mg/kg, moxidectin 0.2 mg/kg
  protection against sea lice: showed protection
Sea lice [3]; formulated in Apoject 1-Fural
  lice on average: 0
Sea lice [3]; formulated in animal oil
  lice on average: 0.8
Sea lice [3]; T3, hexaflumuron in an aqueous suspension (PBS)
  protection against sea lice: no protection
Sea lice [3]; T8 (218 days after injection), hexaflumuron in Apoject 1-Fural, animal oil
  number of sea lice versus control group: significantly lower
Sea lice [3]; hexaflumuron formulated in Apoject 1-Fural or in animal oil
  significant protection against sea lice until and including T10, time after injection: 9 months
Sea lice [3]; two groups of fish injected with hexaflumuron
  prophylactic effect against sea lice: ≤ 10 months
